# Data from US20080181876A1, “Methods for treating acute and subchronic pain” (priority 2007, published 2008).
# Entries after “also recorded” stand apart in the source; their conditions may differ.
# Tests used:
# [1] = test system: Sprague-Dawley (CD) rats; assay: Rat tail-flick latency test (heat source, 15 second maximum); format: in vivo; details: for antinociceptive activity (tail-flick latency), administered alone: single agent: morphine 1.2 mg/kg s.c. or ibudilast 50 mg/kg po
# Procedure: Male Sprague-Dawley (CD) rats were acclimated to a room temperature of 79° F. to semi-confined conditions on a heated glass surface (79° F.). On the first day, rats were acclimated to a glass surface for 20-30 minutes. Rats were in chambers made of plexiglass and could move freely in either direction. No stimulus was given on day 1. On day 2, rats were acclimated for 5 minutes, and a high intensity beam of light was directed at each rat tail approximately 4 cm from the tip. The time it took for a rat tail to withdraw from the heat source was recorded as the baseline latent period for tail flick. Three trials were done with 5 minutes between trials for each rat. The light source was moved for the 2nd and 3rd trials one cm caudal and rostral of the original trial to avoid tissue damage. Animals were dosed orally with ibudilast (50 mg/kg in vehicle (10% HCO60+10% PEG in sterile water) and/or 1.2 mg/kg morphine s.c. formulated in saline for injection. Dose volumes were 1 ml/kg for s.c. administrations (i.e. opioid) and 10 ml/kg for p.o. administrations. Animals were dosed and returned to their cages until 5 minutes before each hourly time point, when they were returned to the glass surface and stimulated with the heat source (3 trials/time point). The ibudilast vehicle was also shown not to have analgesic activity and performed like the saline control. Studies were performed at Avigen Inc. under IACUC regulations.
# [2] = test system: Sprague-Dawley rats; assay: Modified Hargreaves test (high and low intensity), tail and hindpaw withdrawal to heat stimuli; format: in vivo, rat
# Procedure: Pathogen-free adult male Sprague-Dawley rats (300-375 g; Harlan Labs, Madison, Wis.) were used in all experiments. Rats were housed in temperature (23±3° C.) and light (12 h: 12 h light:dark cycle; lights on at 0700) controlled rooms with standard rodent chow and water available ad libitum. All procedures were approved by the Institutional Animal Care and Use Committee of the University of Colorado at Boulder. Each study represents an n=6 per group.
# Morphine sulfate and oxycodone hydrochloride were purchased from Sigma (St. Louis, Mo., USA). Morphine and oxycodone were administered subcutaneously at 4 mg/kg in a dose volume of 1 ml/kg in sterile injection normal saline. Ibudilast was supplied by Avigen (Alameda, Calif., USA). Ibudilast was administered intraperitoneally at 7.5 mg/kg in a dose volume of 2.5 ml/kg in 35% PEG: 65% injection saline. Morphine and oxycodone doses reported are as free base concentrations.
# Hargreaves tests for analgesia and hyperalgesia. Rats received at least three 60 min habituations to the test environment prior to behavioral testing. Thresholds for behavioral response to heat stimuli applied to the plantar surface of each hindpaw and tail were assessed using a modified Hargreaves test (Hargreaves et al., 1988). All testing was conducted blind with respect to group assignment. Briefly, baseline withdrawal values were calculated from an average of 2 consecutive withdrawal latencies of the tail and the left and the right hindpaws, measured at 15-min intervals. Latencies for the high intensity stimulus at baseline ranged from 2 to 3 s, and a cut-off time of 10 s was imposed to avoid tissue damage. Latencies for the low intensity stimulus at baseline ranged from 6 to 7 s, and a cut-off time of 20 s was imposed to avoid tissue damage. The order of paw and tail testing varied randomly.
# The analgesic responses were calculated as the % of maximal possible effect
# (Carmody, 1995). For high intensity Hargreaves, a cut off of 10 s was used. For low intensity Hargreaves, a 20 s cut off was employed. Since there is no unilateral paw effect expected (or observed) left and right withdrawal latencies were averaged. Statistical significance for analysis of time courses was assessed using a two-way repeated ANOVA with Bonferroni post hoc test and compared the analgesic responses of active treatments versus their vehicle controls. Area under the curves were analyzed with a students t-test. Significance was set at P<0.05. Calculations were conducted with Excel 2003 SP2 (Microsoft, Redmond, Calif., USA) & Prism 4.03 (GraphPad, San Diego, Calif., USA).
# Following baseline withdrawal latency assessments (−45 min), animals received ibudilast or vehicle and were tested again 10 min later to determine if ibudilast or vehicle had any effect on withdrawal latencies. At this time (time 0), the animals received a subcutaneous saline injection (1 ml/kg) to control for conditions in Experiment 2 (see below). Animals were then tested every 10 minutes for 80 min alternating high and low intensity Hargreaves tests.
# Following baseline withdrawal latency assessments (−45 min), animals received ibudilast or vehicle (−30 min) and were tested again at −10 min. At time 0, animals received a subcutaneous morphine injection (4 mg/kg in a dose volume of 1 ml/kg in injection saline) and were tested every 10 minutes for 230 min alternating high and low intensity Hargreaves tests. […]
structure (smiles),measurement,setting,value
CN1CC[C@]23c4c5ccc(O)c4O[C@H]2[C@@H](O)C=C[C@H]3[C@H]1C5 [morphine],"antinociceptive activity (tail-flick latency), administered alone",[1],weak antinociceptive activity
"CC(C)C(=O)c1c(C(C)C)nn2ccccc12 [ibudilast, 3-isobutyryl-2-isopropylpyrazolo[1,5-a]pyridine]","enhancement of morphine analgesia, tail and paw withdrawal latencies","[2]; ibudilast 7.5 mg/kg i.p. 30 min prior to morphine 4 mg/kg s.c., high and low intensity Hargreaves, vs vehicle + morphine",significantly enhanced; also recorded: potentiated analgesia
same,"enhancement of oxycodone analgesia, tail and paw withdrawal latencies","[2]; ibudilast 7.5 mg/kg i.p. 30 min prior to oxycodone 4 mg/kg s.c., high and low intensity Hargreaves, vs vehicle + oxycodone",significantly enhanced; also recorded: potentiated analgesia
same,"area under the analgesia curve, co-administration with morphine","[2]; ibudilast 7.5 mg/kg i.p. + morphine 4 mg/kg s.c., tail and hind paw, vs vehicle + morphine",significant increase in analgesia
same,"area under the analgesia curve, co-administration with oxycodone","[2]; ibudilast 7.5 mg/kg i.p. + oxycodone 4 mg/kg s.c., tail and hind paw, vs vehicle + oxycodone",significant increase in analgesia
same,"tail and paw withdrawal latencies (% maximal possible effect), ibudilast alone","[2]; ibudilast 7.5 mg/kg i.p. alone (followed by s.c. saline), high and low intensity Hargreaves, vs vehicle 35% PEG",no significant influence; also recorded: little to no effect
same,"tail-flick latency, co-administration of oral ibudilast and s.c. morphine","[1]; ibudilast 50 mg/kg po + morphine 1.2 mg/kg s.c. concurrently, vs either therapeutic alone","substantial, greater-than-additive increase; also recorded: potentiates morphine-induced analgesia"
same,"antinociceptive activity (tail-flick latency), administered alone",[1],weak antinociceptive activity
